Measurements from PMC9828244, “Molecular and functional characterization of an evolutionarily conserved CREB‐binding protein in the Lymnaea CNS” (The FASEB Journal, 2022).

Biological target: T1, LymCBP HAT domain (Lymnaea stagnalis, UniProt E2QC33)
T1 construct: HAT (catalytic) domain, R1240 to K1641 of LymCBP, His6-tag, pET28a(+), expressed in E. coli Rosetta-gami 2(DE3); cDNA from Lymnaea CNS; Ni-NTA and cation exchange
Assay: autoradiography of […]-acetylated histone H1 after SDS-PAGE
Format: biochemical
Conditions: pH 8.0, 30 °C, 4 h

[1] = 50 uM inhibitor, calf thymus histone H1, [14C]-acetyl-CoA

T1 sequence (E2QC33 entry or part of it): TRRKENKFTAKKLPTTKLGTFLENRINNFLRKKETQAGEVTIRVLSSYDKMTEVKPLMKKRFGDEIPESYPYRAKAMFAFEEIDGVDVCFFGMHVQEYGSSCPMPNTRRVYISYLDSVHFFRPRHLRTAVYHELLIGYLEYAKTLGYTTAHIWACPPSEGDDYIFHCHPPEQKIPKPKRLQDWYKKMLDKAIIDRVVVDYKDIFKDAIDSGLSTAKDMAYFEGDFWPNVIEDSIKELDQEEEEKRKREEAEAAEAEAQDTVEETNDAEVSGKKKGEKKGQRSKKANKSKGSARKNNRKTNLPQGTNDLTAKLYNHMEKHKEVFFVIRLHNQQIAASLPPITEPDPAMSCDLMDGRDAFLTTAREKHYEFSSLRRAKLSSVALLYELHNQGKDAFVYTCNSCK

SMILES	autoradiography of [14C]-acetylated histone H1 after SDS-PAGE (calf thymus histone H1 as acetyl acceptor, no inhibitor, labelled compound)	autoradiography of [14C]-acetylated histone H1 after SDS-PAGE [1]
CC(=O)SCCNC(=O)CCNC(=O)[C@H](O)C(C)(C)COP(=O)(O)OP(=O)(O)OC[C@H]1O[C@@H](n2cnc3c(N)ncnc32)[C@H](O)[C@@H]1OP(=O)(O)O [[14C]-acetyl-CoA]	in the absence of HAT inhibitors in the incubation solution, LymCBP acetylated histone H1	
C=C(C)[C@@H](CC=C(C)C)C[C@@]12C[C@@H](CC=C(C)C)C(C)(C)[C@@](CC=C(C)C)(C(=O)C(=C(O)c3ccc(O)c(O)c3)C1=O)C2=O [garcinol]		In the presence of HAT inhibitors in the incubation solution, however, H1 acetylation signals were eliminated
CCCCCCCCCCCCCCCc1cccc(O)c1C(=O)O [anacardic acid]		In the presence of HAT inhibitors in the incubation solution, however, H1 acetylation signals were eliminated
COc1cc(/C=C/C(=O)CC(=O)/C=C/c2ccc(O)c(OC)c2)ccc1O [curcumin]		In the presence of HAT inhibitors in the incubation solution, however, H1 acetylation signals were eliminated
